Among the data in PubChem BioAssay AID489022 (Sanford-Burnham Center for Chemical Genomics, 2010) are IC50 values, retold here.

SMILES strings stand for the structures. Activity calls are given as the source filed them. How the calls were made is not given here.

The test system of this experiment is HEK-293T NF-kB luciferase reporter, luminescence counterscreen. Description: NF-kB reporter suppression in HEK-293T cells – luminescence, B-cell screen hits, counter-screen for BCR NF-kB inhibitor project, dose response (AID 489022).

Take `NNC(=O)COc1ccc(-c2nccc(-c3ccc(F)cc3)n2)cc1`: the IC50 was 42.3 µM (inactive).
The result for `COc1cccc(/C=C2/SC(=S)N(CCCC(=O)Nc3ccc(O)cc3)C2=O)c1` reads 50.6 µM (inactive); that for `O=C1CCC2S/C(=C/Nc3ccc(C(F)(F)F)cc3)C(=O)N12` (stereo not drawn), 3.77 µM; that for `CCN(CC)CCOC(=O)c1ccc(NC(=O)COc2cc(=O)n(CC)c3ccccc23)cc1`, 43.8 µM (inactive).
The result for `CC1CCN(C(=O)CCCOc2cc(=O)n(C)c3ccccc23)CC1` reads > 80 µM (inactive); that for `Cc1c(NC(=O)/C=C/c2cn(-c3ccccc3)nc2-c2ccccc2)c(=O)n(-c2ccccc2)n1C`, > 80 µM (inactive).
For `Cc1ccc(/C=C2\SC(=S)N(CCCC(=O)Nc3cccnc3)C2=O)cc1` the value was 51.8 µM (inactive).
Turning to `Cc1ccc(/C=C2\SC(=S)N(CCC(=O)NNC(=O)c3ccncc3)C2=O)cc1`, the IC50 is > 80 µM (inactive).
The result for `CN1CCN(C(=O)c2ccccc2N(Cc2ccccc2)S(=O)(=O)c2ccccc2)CC1` reads 45.4 µM (inactive); that for `O=C(CCCN1C(=O)/C(=C/c2ccccc2Cl)SC1=S)NNC(=O)c1ccccc1Cl`, 20 µM; that for `CCc1ccc(-c2nc(CSCC(=O)NC3CC3)c(C)o2)cc1`, 30.5 µM (inactive).
The result for `Cn1c(=O)n(C)c2cc(NS(=O)(=O)c3ccccc3)ccc21` reads 59.3 µM (inactive).
The result for `CCN(CC(=O)Nc1c(F)cccc1F)C(=O)C1(c2ccccc2)CC1` reads > 80 µM (inactive); that for `COc1ccc(/C=C2\SC(=S)N(CCC(=O)Nc3ccc(C(=O)O)cc3)C2=O)cc1`, > 80 µM (inactive); that for `COc1ccc(OCc2cccc(C(=O)NN)c2)cc1`, 17.4 µM.
Regarding `COc1ccc(OCc2cccc(C(=O)Nn3cc([N+](=O)[O-])cn3)c2)cc1`, the IC50 was 11.9 µM.
The result for `O=C(CCCN1C(=O)/C(=C/c2ccccc2Cl)SC1=S)NNC(=O)c1ccncc1` reads 12.7 µM; that for `CC1=CC(C)(C)Nc2ccc(OC(=O)CN3C(=O)c4ccccc4C3=O)cc21`, 9.25 µM; that for `Cn1c(=NC(=O)CCl)sc2ccccc21`, 21.6 µM (inactive).
The result for `COC(=O)C1=C(c2ccc(-c3ccccc3)c(F)c2)C[C@@H]2CC[C@H]1N2C(=O)N1CCCC1` reads 1.83 µM; that for `COc1ccc(-n2c(-c3ccc(Cl)cc3)c[n+]3c2CCc2ccccc2-3)cc1`, 3.18 µM; that for `Cc1ccc(-c2nn3c(C)nnc3c3ccccc23)cc1S(=O)(=O)NC(C)(C)CO`, 27.6 µM (inactive).
For `Cc1cc(C)nc(Sc2ccc([N+](=O)[O-])cc2[N+](=O)[O-])n1` the value was > 80 µM (inactive).
With `Cc1nc2cc(-c3ccccc3)nn2c(C)c1CCC(=O)NCc1ccco1`, the IC50 is > 80 µM (inactive).
As for `CC(=O)c1cccc(S(=O)(=O)Nc2cc(C(F)(F)F)ccc2N2CCOCC2)c1`, the IC50 is > 80 µM (inactive).
The result for `CCN(CC(=O)Nc1c(F)cccc1F)C(=O)c1cc([N+](=O)[O-])ccc1N1CCCCC1` reads > 80 µM (inactive).
Take `CCN1C(=O)c2cccc3c(S(=O)(=O)Nc4ccccn4)ccc1c23`: the IC50 is 9.44 µM.
For `CC(C)(C)C(=O)/C(=C/c1ccncc1)n1cncn1` the value was 20.9 µM (inactive); for `CCc1ccc(/C=C2/SC(=S)N(CCC(=O)Nc3ccc(C(=O)O)cc3)C2=O)cc1`, > 80 µM (inactive).
`COC(=O)c1c(NC(=O)c2cccc([N+](=O)[O-])c2)sc(C(N)=O)c1C`: the IC50 was > 80 µM (inactive).
With `Cc1cc(NC(=O)CCCN2C(=O)/C(=C/c3ccccc3Cl)SC2=S)no1`, the IC50 is > 80 µM (inactive).
The result for `CCOc1ccc(-c2cc(CCCC(=O)NCCCOC)no2)cc1` reads 60 µM (inactive); that for `CCCOc1ccc(NC(=O)C(=O)NCCCn2ccnc2)cc1`, > 80 µM (inactive).
The result for `c1ccc(CCNc2ncnc3ccccc23)cc1` reads 0.45 µM; that for `Cc1ccc(-c2nn3c(C)nnc3c3ccccc23)cc1S(=O)(=O)N1CCN(CCO)CC1`, 22.4 µM (inactive); that for `CN(C)C(=O)CCc1nc(-c2ccc(C(C)(C)C)cc2)no1`, 51.8 µM (inactive).
For `CC(C)CN(C(=O)COC(=O)C12CC3CC(CC(C3)C1)C2)c1c(N)n(Cc2ccccc2)c(=O)[nH]c1=O` the value was 10.6 µM; for `CCn1c(=O)cc(SCC(=O)N2CCC(C)CC2)c2ccccc21`, 70.9 µM (inactive).
For `CCN(CC)c1ccc(/C=N/N=C(c2ccccc2)c2ccccc2)c(O)c1`, the IC50 was > 80 µM (inactive).
As for `Cc1ccc(NC(=O)C2CCC(CNc3c(N4CCC(C)CC4)c(=O)c3=O)CC2)cc1F` (stereo not drawn), the IC50 was > 80 µM (inactive).
As for `CCOc1ccc(-c2c[n+]3c(n2-c2ccccc2)CCCCC3)cc1`, the IC50 is 3.28 µM.
For `Cc1cccn2c(=O)c3cc(C(=O)NC4CCCCC4)c(=N)n(CCN4CCOCC4)c3nc12` the value was > 80 µM (inactive); for `CCOC(=O)Cc1ccc(NC(=O)c2ccc(C(C)(C)C)cc2)cc1`, 1.04 µM; for `COc1ccc(/C=C2/SC(=S)N(CCCC(=O)Nc3cccc(O)c3)C2=O)cc1`, 27.5 µM (inactive).
`COc1cc(OC)cc(-c2cc3nc(C)c(CCC(=O)NCc4ccccc4)c(C)n3n2)c1`: the IC50 is 10.5 µM.
For the compound `CCc1ccc2[nH]c3nc(N/N=C/c4cccc(O)c4)nnc3c2c1`, the IC50 is > 80 µM (inactive).
For `Cc1ccc(NC(=O)O/N=C/c2c(C)nn(C(C)(C)C)c2C)cc1Cl` the value was under 0.16 µM; for `COc1ccc(-c2noc(N3CCC(C(=O)Nc4ccc(OC)c(OC)c4)CC3)n2)cc1`, > 80 µM (inactive).
For `COc1ccccc1/C=C1/SC(=S)N(CCC(=O)Nc2cccnc2)C1=O` the value was 37 µM (inactive); for `CCOc1ccc(-c2cc(CCCC(=O)NCc3ccc(C)cc3)no2)cc1`, 70.9 µM (inactive); for `C=CCn1c(O)c(C(CC)=NC(C)c2ccccc2)c(=O)[nH]c1=O` (stereo not drawn), 25 µM (inactive).
Take `CCN(CC(=O)Nc1c(F)cccc1F)C(=O)c1cc(S(=O)(=O)N(C)C)ccc1N1CCCC1`: the IC50 was > 80 µM (inactive).
The result for `COc1ccc2nc(C)cc(Sc3nc4ccccc4s3)c2c1` reads 11.2 µM.
The result for `C=CCn1c(O)c(C(C)=NC(C)c2ccccc2)c(=O)[nH]c1=O` (stereo not drawn) reads 60.2 µM (inactive); that for `Cn1c(=O)n(C)c2cc(NC(=O)CSc3nnc(-c4ccccc4O)n3-c3ccccc3)ccc21`, 18.2 µM; that for `OCCN1CCN(C(=S)c2ccc(-c3ccccc3)cc2)CC1`, 31.6 µM (inactive).
The result for `COC(=O)[C@@H]1Cc2c([nH]c3ccccc23)C(C)(C)N1C(=O)CCl` reads 36 µM (inactive); that for `COC(=O)CSc1nnc(-c2sc3ccccc3c2Cl)o1`, 7.24 µM.
In the case of `COc1ccccc1/C=C1\SC(=S)N(CCC(=O)Nc2cc(C)on2)C1=O`, the IC50 was > 80 µM (inactive).
Take `CC1CC(C)CN(S(=O)(=O)c2ccc(C(=O)NCCCn3ccnc3)cc2)C1` (stereo not drawn): the IC50 was > 80 µM (inactive).
For `CCc1ccc2nc(Nc3nc(COC)cc(=O)[nH]3)nc(C)c2c1` the value was 46.4 µM (inactive); for `COc1ccc(/C=C2\SC(=S)N(CCC(=O)Nc3ccc(C(=O)O)cc3)C2=O)cc1OC`, > 80 µM (inactive).
`Cc1nnc2c3ccccc3c(-c3ccccc3)nn12`: the IC50 is 61.4 µM (inactive).
For `O=C(CCCN1C(=O)S/C(=C/C=C/c2ccccc2)C1=O)Nc1ccc(C(=O)O)cc1` the value was > 80 µM (inactive).
On to `COc1ccc(C2=NCc3nnc(C)n3-c3ccc(Cl)cc32)cc1Cl`, for which the IC50 is > 80 µM (inactive).
The result for `Cn1c(=O)cc(OCCCC(=O)N2CCCCC2)c2ccccc21` reads 60.2 µM (inactive); that for `COc1cccc(-c2noc(CCC(=O)NCCc3ccccc3)n2)c1`, 75.4 µM (inactive).
For `O=C(CSCCO)Nc1ccc(C23CC4CC(CC(C4)C2)C3)cc1` the value was 3.86 µM.
The result for `Oc1[nH]c2ccccc2c1N=Nc1nc(Nc2ccccc2)nc(N2CCOCC2)n1` reads 35.5 µM (inactive).
Take `COc1ccc(-c2ccc(F)cc2)cc1[C@H]1[C@H]2C=CC[C@@H](C)[C@@H]2C(=O)N1Cc1ccccc1`: the IC50 was 13.1 µM.
For `CCOC(=O)N1CCN(c2ncnc3c2[nH]c2ccc(OC)cc23)CC1` the value was 20.1 µM (inactive).
For the compound `CCCCCC/C=C/c1ccc(OC)c([C@H]2[C@H]3C=CC[C@@H](C)[C@@H]3C(=O)N2Cc2ccccc2)c1`, the IC50 is > 80 µM (inactive).
For `CCn1c(=S)[nH]c2cc(S(=O)(=O)N3CCCCC3)ccc21` the value was 33.9 µM (inactive); for `CNC(=O)c1cccn(Cc2ccc(C(F)(F)F)cc2)c1=O`, 35.5 µM (inactive).
The result for `CCn1c(=O)cc(OCC(=O)Nc2ccc(OC)c(OC)c2)c2ccccc21` reads 70.3 µM (inactive); that for `COc1ccc(-c2nsc(SCC(=O)Nc3cc(C)on3)n2)cc1`, > 80 µM (inactive).
For `CC1CC(C)(C)Nc2ccc(OC(=O)c3ccco3)cc21` (stereo not drawn) the value was 8.89 µM; for `O=S(=O)(c1cnc(Cl)c(Cl)c1)N1CCCc2ccccc21`, > 80 µM (inactive); for `COc1cc(-c2nc3ccc(N4CCN(C)CC4)cc3[nH]2)cc(OC)c1OC`, > 80 µM (inactive).
Take `Cc1ccc(-n2c(-c3ccccc3)c[n+]3c2CCc2ccccc2-3)c(C)c1`: the IC50 was 2.15 µM.
With `CCOc1ccc(NC(=O)CCCc2cc(-c3ccc(OCC)cc3)on2)cc1`, the IC50 was > 80 µM (inactive).
For the compound `CC1CCC/C=C/C2CC(O)CC2C(O)/C=C/C(=O)O1` (stereo not drawn), the IC50 was 0.53 µM.
The result for `COc1cc(-c2cc(=O)c3c(O)c(OC)c(OC)c(OC)c3o2)cc(OC)c1OC` reads > 80 µM (inactive).
